Laboratory results: BindingDB's records for doi:10.1016/j.bmcl.2005.01.005 (East China Normal University, 2022)

How the values were obtained:
[1] = molecular target: Potassium voltage-gated channel subfamily H member 2 (Homo sapiens, UniProt Q12809); assay: Inhibition of hERG expressed in CHO cells Qpatch-clamp electrophysiology assay
[2] = molecular target: Polyketide synthase Pks13 (Mycobacterium tuberculosis (strain ATCC 25618 / H37Rv), UniProt I6X8D2); assay: Inhibition of Mycobacterium tuberculosis Pks13-TE expressed in Escherichia coli BL21(DE3) pLysS
Polyketide synthase Pks13, sequence (I6X8D2 whole entry): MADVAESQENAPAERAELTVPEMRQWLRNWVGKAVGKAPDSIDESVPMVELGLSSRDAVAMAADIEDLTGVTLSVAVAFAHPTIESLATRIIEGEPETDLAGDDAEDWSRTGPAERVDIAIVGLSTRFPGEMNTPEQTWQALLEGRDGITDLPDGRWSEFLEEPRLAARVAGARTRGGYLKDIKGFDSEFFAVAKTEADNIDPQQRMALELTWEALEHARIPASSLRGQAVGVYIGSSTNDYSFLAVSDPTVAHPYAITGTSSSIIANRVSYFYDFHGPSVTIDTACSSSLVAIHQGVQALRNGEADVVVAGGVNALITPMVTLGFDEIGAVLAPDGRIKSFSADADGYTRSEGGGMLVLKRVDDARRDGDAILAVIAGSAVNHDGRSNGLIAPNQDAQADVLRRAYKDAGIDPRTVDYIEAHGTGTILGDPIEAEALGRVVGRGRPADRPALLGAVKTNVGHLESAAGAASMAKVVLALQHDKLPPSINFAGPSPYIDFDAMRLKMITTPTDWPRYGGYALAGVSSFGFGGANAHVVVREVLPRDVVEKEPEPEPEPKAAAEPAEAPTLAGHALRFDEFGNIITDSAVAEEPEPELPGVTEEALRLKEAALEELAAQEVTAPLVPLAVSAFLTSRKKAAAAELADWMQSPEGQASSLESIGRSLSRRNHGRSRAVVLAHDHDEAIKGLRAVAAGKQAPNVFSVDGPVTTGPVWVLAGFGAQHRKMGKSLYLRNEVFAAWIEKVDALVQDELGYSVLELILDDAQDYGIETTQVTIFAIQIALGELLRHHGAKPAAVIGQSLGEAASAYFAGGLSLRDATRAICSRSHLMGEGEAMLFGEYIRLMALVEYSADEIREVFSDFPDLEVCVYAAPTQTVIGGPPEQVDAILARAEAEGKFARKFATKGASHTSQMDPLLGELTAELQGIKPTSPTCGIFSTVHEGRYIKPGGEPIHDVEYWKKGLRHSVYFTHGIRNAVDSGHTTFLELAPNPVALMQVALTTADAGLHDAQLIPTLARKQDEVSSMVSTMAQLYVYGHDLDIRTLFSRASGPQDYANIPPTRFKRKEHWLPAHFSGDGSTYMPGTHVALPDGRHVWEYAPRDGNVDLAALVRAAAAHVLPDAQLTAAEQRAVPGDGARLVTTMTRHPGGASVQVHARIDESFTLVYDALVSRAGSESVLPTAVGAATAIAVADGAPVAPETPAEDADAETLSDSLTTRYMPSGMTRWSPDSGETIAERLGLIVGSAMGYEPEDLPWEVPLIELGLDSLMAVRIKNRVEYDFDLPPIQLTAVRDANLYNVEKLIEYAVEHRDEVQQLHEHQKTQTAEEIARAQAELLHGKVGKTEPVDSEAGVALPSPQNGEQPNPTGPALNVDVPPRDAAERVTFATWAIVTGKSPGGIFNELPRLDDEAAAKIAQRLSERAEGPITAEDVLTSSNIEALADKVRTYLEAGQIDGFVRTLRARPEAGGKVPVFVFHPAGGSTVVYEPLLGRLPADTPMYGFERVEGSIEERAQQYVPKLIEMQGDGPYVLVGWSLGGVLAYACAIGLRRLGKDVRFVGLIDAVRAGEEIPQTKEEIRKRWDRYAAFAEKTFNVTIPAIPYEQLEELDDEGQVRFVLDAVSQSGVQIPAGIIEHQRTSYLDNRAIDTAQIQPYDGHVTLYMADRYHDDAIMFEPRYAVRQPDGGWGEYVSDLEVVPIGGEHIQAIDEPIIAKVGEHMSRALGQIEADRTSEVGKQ

Potassium voltage-gated channel subfamily H member 2, sequence (Q12809 whole entry): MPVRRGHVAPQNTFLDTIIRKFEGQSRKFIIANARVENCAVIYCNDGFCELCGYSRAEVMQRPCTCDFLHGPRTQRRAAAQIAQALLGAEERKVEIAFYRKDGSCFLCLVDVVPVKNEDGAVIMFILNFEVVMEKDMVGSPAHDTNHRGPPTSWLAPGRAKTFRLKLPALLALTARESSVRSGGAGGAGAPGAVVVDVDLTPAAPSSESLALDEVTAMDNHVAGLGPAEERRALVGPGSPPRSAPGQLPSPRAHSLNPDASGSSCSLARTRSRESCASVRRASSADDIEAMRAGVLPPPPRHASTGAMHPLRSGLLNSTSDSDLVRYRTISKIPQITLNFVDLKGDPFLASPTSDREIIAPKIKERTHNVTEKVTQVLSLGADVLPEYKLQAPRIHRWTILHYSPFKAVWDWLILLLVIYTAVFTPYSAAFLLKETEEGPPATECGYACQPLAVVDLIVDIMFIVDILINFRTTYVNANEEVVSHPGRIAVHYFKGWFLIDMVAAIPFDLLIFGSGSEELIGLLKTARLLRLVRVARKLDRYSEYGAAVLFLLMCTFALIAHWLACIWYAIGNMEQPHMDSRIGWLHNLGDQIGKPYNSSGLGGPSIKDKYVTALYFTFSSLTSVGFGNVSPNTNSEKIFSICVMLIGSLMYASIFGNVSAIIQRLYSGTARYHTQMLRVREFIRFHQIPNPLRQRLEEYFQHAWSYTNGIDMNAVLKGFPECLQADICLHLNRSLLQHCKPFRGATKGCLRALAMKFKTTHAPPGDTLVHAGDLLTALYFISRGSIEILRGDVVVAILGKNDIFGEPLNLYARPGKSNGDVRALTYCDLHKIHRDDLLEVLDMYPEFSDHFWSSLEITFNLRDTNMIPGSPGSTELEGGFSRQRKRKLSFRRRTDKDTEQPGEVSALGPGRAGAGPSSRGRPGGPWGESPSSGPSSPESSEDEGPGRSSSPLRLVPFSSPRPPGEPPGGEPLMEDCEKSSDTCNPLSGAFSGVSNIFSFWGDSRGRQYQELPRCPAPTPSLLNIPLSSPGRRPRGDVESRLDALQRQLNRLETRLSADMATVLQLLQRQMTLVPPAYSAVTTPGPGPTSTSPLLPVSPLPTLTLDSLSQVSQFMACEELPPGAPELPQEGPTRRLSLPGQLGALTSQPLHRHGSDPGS

## O=c1oc2cc(O)ccc2c2oc3ccc4c(c3c12)CN(C1CCCC1)CO4
[1]
  IC50: 520 nM
[2]
  IC50: 1300 nM

## O=c1oc2cc(O)ccc2c2oc3ccc(O)c(CN4CCCCC4)c3c12
[1]
  IC50: > 30000 nM

## O=c1oc2cc(O)ccc2c2oc3ccc(O)c(CN4CCC(F)CC4)c3c12
[2]
  IC50: 1550 nM
